The values that follow come from ChEMBL document CHEMBL1201862, “PubChem BioAssay data set” (2004).

The source made the active and inactive calls. A value given as a limit tells only on which side of the number the result lay.

Broadly, the EC50 is the concentration that produces a half-maximal response. As a reminder, the IC50 is the concentration that gives 50% inhibition. Usually CC50 stands for the concentration giving 50% cytotoxicity. One may read the AC50 as the midpoint of the concentration-response curve, whichever way the signal moves.

Assay [1] is described as follows: Luminescence Cell-Based Dose Response HTS to Identify Activators of Luciferase Translation or Activity in H4 […] Cells. [Related pubchem assays: 1829 (Project Summary), 1814 (Primary HTS)]. In kind it is functional.
A short description of assay [2]: Luminescence Cell-Based Dose Response to Identify Activators of Luciferase Translation or Activity in H4-C Neuroglioblastoma Cells. [Related pubchem assays: 1829 (Project Summary), 1814 (Primary HTS)]. In kind it is functional.
The target of assay [3] is T1, Sentrin-specific protease 6 (Homo sapiens, UniProt Q9GZR1).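 Further: Luminescence-based dose-response confirmatory assay of SENP6 inhibition, following up an ultra-high-throughput screen.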
T1 sequence (Q9GZR1 whole entry): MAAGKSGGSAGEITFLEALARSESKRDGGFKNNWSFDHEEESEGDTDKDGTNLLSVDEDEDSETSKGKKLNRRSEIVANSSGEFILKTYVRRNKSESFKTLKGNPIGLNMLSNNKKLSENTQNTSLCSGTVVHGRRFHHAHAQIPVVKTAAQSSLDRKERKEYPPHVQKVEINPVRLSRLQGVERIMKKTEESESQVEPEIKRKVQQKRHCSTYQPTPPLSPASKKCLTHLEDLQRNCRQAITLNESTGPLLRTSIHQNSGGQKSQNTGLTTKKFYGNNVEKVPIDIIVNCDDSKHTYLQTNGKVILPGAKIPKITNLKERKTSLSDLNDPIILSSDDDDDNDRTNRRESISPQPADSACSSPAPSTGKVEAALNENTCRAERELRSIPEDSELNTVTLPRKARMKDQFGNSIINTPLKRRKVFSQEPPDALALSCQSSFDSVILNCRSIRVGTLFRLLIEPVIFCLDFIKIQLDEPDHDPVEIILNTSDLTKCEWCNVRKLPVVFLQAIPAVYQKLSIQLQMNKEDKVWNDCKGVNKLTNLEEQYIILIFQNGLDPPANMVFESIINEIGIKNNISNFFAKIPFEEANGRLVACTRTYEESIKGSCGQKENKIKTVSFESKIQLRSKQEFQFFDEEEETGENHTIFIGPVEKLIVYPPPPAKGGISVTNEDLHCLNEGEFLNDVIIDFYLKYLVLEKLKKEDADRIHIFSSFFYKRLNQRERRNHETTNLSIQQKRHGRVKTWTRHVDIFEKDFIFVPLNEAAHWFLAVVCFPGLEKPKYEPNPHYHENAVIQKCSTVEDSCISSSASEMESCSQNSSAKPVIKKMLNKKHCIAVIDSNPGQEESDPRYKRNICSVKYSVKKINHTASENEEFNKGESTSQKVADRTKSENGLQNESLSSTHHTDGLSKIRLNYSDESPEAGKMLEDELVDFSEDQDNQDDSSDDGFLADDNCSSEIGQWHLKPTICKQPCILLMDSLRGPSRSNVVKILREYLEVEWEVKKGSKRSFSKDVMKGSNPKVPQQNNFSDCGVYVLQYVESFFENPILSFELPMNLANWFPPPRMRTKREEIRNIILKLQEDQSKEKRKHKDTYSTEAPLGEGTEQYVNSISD
In kind it is functional.

For assay [4], the target named is T2, Sentrin-specific protease 7 (Homo sapiens, UniProt Q9BQF6).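 Further: Luminescence-based dose-response confirmation of ultra-high-throughput screening hits, measuring inhibition of SENP7.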
T2 sequence (Q9BQF6 whole entry): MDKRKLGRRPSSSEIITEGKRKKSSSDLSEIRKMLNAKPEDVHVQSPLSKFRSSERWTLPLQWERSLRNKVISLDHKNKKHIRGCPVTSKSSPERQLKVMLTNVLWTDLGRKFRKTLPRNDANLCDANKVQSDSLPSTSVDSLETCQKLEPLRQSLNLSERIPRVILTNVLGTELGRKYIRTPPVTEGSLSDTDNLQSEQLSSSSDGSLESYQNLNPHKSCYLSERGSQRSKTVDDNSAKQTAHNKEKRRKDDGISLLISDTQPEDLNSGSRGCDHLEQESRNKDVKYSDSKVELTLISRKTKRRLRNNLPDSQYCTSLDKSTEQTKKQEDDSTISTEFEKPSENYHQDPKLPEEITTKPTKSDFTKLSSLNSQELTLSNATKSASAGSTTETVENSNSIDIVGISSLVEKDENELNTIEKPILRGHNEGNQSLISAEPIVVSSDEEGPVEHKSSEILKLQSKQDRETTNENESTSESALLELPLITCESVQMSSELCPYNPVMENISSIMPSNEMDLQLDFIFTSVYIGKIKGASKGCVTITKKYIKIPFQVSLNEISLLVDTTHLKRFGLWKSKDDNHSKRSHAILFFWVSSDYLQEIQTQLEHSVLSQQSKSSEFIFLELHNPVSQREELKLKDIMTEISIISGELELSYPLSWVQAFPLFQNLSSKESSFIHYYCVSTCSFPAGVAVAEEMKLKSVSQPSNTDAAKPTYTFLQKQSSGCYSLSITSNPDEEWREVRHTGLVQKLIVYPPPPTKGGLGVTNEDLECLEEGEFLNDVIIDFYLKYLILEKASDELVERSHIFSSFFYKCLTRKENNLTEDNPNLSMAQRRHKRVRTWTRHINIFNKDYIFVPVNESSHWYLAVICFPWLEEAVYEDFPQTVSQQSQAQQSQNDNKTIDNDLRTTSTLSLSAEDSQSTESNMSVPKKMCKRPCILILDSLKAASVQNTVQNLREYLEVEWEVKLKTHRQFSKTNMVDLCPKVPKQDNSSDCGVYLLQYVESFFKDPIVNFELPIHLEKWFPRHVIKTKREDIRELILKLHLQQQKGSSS
The assay is classed as functional.

Assay [5] can be described thus: Luminescence Cell-Based Dose Response to Identify Activators of 5'UTR Stem-Loop Driven Prion Protein mRNA Translation in H4-C Neuroglioblastoma Cells. [Related pubchem assays: 1829 (Project Summary), 1814 (Primary HTS)]. The assay is classed as functional.
Assay [6] in a line: Luminescence Cell-Based Dose Confirmation to Identify Activators of 5'UTR Stem-Loop Driven Alpha-Synuclein mRNA Translation in H4 Neuroglioblastoma Cells. [Related pubchem assays: 1829 (Project Summary), 1814 (Primary HTS)]. The assay is classed as functional.
Assay [7] deals with T3, Sentrin-specific protease 8 (Homo sapiens, UniProt Q96LD8).
T3 sequence (Q96LD8 whole entry): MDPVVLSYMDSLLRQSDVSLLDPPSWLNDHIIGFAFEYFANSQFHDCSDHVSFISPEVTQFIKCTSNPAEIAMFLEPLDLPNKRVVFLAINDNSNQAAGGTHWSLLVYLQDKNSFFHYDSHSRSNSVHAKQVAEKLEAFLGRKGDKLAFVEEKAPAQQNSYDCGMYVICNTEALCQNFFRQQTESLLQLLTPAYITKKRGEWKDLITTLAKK
The assay is classed as functional.

The target of a further assay is T4, Caspase-3 (Homo sapiens, UniProt P42574).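 Further: Dose-response selectivity test against caspase-3 for candidate inhibitors of sentrin-specific proteases (SENPs).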
T4 sequence (P42574 whole entry): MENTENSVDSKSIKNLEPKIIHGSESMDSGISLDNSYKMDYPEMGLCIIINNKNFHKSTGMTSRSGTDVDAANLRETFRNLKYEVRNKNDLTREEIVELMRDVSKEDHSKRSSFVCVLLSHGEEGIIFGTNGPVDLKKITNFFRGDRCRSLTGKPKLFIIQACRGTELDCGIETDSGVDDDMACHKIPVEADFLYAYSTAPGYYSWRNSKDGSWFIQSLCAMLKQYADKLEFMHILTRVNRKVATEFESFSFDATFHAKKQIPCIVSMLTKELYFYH
The assay is classed as functional.

Assay [8] is described as follows: HEp-2 cell cytotoxicity, dose response, cytotoxicity control for RSV inhibitor project, HTS (AID 2410). The assay is classed as functional. The settings on record: human respiratory syncytial virus.
In assay [9] the target is T5, Fatty acid synthase (Homo sapiens, UniProt P49327). Briefly: FAS thioesterase domain inhibitors, dose response, biochemical, kinetic fluorescence intensity (AID 624326).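 Further: rate of fluorescence rise from hydrolysis of a fluorogenic O-methyl fluorescein ester substrate.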 The assay is classed as functional.
In assay [10] the target is T5, Fatty acid synthase. Put plainly: FAS thioesterase domain inhibitors, dose response, biochemical, endpoint fluorescence intensity, uHTS hits (AID 624327).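 Further: fluorescence from hydrolysis of an O-methyl fluorescein acyl ester substrate by the enzyme.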 In kind it is functional.
Assay [11] can be described thus: Luminescence Cell-Based Dose Retest to Confirm Inhibitors of Cancer Stem Cells. [Related pubchem assays (depositor defined):AID2717, AID2721]. In kind it is functional. The settings on record: Homo sapiens.
For another assay, the target named is T6, Aminopeptidase N (Plasmodium falciparum FcB1/Columbia, UniProt O96935).
T6 sequence (O96935 whole entry): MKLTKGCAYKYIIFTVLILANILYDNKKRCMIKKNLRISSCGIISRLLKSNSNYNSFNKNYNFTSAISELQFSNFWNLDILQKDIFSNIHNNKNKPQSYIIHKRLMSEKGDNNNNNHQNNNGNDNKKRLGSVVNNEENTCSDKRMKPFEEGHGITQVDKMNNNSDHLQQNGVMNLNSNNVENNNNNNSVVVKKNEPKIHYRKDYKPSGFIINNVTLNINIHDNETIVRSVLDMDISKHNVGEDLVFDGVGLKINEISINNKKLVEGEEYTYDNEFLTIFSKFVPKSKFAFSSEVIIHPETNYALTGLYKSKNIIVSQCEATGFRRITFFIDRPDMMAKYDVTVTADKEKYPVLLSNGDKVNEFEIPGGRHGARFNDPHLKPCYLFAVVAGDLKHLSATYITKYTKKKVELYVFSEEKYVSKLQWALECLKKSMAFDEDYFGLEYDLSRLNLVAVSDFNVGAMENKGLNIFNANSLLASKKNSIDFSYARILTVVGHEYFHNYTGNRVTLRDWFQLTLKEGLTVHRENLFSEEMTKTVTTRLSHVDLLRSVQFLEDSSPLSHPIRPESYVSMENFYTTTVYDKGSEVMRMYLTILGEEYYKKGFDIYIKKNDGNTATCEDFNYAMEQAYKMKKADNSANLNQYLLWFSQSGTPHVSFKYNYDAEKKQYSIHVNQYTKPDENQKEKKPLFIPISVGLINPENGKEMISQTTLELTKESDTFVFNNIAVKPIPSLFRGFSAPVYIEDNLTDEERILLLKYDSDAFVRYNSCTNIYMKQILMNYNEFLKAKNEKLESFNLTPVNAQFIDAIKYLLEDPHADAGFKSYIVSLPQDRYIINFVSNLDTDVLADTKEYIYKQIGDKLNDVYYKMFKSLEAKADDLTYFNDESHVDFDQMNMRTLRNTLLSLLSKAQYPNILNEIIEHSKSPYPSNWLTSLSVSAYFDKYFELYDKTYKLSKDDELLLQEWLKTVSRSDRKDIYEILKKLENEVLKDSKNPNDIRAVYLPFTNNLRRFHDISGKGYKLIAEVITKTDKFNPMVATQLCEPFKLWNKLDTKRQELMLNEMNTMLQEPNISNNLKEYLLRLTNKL
Put plainly: P. falciparum M1AAP inhibitors, biochemical, fluorogenic H-Leu-NHMec substrate, 1536-well (AID 1445). Also on record: species or system Plasmodium falciparum 3D7, 3D7.

The nature of assay [12]: M. tuberculosis H37Rv growth inhibitors, H37Rv strain (AID 1626). The assay is classed as functional.
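Wherever AC50 is given: cells exposed to compound for roughly 70 hours or longer before luminescence read.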

T5 sequence (P49327 whole entry, the tested form may be a part): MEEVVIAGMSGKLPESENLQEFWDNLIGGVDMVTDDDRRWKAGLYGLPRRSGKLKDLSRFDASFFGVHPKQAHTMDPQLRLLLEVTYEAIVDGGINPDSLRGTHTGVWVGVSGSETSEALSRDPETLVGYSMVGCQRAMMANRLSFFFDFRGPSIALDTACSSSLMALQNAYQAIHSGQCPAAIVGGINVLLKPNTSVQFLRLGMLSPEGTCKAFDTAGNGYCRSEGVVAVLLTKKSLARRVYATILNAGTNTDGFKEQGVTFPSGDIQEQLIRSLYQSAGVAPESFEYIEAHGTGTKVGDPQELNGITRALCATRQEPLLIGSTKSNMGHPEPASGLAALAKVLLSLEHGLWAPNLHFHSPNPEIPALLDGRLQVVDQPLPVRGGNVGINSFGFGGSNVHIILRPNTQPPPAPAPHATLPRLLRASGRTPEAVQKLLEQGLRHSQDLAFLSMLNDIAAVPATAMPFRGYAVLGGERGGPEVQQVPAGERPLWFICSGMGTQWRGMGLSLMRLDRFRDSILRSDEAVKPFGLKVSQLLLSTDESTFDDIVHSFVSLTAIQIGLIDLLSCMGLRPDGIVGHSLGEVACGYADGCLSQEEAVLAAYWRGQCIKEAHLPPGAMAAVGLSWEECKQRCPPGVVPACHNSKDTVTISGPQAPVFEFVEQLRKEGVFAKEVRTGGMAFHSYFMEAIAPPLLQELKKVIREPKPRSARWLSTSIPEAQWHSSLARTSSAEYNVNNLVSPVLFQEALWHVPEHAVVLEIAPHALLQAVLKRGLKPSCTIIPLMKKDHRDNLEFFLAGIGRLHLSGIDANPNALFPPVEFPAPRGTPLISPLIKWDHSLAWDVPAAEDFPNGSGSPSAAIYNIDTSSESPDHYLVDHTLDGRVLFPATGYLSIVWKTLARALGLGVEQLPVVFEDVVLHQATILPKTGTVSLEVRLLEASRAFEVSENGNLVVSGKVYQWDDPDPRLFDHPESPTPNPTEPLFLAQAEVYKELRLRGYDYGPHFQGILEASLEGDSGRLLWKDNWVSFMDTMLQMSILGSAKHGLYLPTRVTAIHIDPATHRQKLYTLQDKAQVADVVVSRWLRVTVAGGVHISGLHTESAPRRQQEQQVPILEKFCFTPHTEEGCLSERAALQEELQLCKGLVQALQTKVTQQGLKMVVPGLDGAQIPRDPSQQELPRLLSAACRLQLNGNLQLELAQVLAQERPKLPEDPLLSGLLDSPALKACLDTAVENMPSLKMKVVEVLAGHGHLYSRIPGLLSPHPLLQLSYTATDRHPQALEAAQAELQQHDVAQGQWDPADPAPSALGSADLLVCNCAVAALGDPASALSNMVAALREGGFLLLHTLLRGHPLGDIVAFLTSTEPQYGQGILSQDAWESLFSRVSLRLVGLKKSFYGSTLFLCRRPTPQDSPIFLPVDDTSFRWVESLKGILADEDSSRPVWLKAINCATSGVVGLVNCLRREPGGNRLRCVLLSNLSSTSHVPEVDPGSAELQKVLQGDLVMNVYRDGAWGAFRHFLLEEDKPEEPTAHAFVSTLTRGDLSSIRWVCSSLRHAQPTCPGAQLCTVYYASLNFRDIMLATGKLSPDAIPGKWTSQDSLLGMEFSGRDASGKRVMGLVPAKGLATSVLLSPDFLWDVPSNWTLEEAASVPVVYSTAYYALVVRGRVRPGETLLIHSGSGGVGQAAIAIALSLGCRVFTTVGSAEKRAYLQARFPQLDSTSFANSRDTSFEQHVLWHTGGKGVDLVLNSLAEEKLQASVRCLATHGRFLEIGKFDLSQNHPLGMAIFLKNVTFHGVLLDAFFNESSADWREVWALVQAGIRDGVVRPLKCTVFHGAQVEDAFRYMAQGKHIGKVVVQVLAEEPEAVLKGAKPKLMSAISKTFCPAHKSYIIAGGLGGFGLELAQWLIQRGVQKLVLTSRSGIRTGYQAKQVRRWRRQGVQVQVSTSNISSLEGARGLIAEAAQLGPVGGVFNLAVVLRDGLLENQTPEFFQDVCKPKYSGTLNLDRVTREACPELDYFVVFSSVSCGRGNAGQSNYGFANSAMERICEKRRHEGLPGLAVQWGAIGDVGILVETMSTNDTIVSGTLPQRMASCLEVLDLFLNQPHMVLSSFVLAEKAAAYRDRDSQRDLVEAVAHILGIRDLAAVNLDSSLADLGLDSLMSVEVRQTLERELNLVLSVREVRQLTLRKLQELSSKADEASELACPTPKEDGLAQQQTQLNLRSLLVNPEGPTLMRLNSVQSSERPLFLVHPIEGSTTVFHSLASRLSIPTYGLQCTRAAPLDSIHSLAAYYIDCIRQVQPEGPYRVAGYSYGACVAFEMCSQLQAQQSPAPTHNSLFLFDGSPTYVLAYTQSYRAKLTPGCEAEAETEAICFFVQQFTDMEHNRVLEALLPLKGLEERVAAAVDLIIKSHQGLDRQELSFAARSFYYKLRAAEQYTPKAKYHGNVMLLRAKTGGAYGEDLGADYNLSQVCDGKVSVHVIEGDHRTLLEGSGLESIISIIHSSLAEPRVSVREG

For `Cc1ccc(OCc2nc(-c3ccccc3)no2)c(C)c1`, the 50% effective concentration (EC50) was < 0.1 µM (active) in assay [1], > 12 µM (not active) in assay [2], 1.03 µM (active) in assay [5] and 8.27 µM (active) in assay [6]. Also, the IC50 in assay [3] was 11.8 µM (active); in assay [4], 7.65 µM (active); in assay [7], 62 µM (active); at Caspase-3 it was 28.9 µM (active).

On to `Cc1cccn2c(=O)c(/C=C(\C#N)C(=O)NCc3ccco3)c(N3CCCCCC3)nc12`, for which the CC50 in assay [8] was 22 µM (active). Also, the half-maximal inhibitory concentration (IC50) is 22.5 µM (active) in the assay “cells”, 9.53 µM (active) at Fatty acid synthase [9] and 21.9 µM (inactive) at Fatty acid synthase [10].

`COCCNc1cc(-c2ccccc2)nc2cc(-c3cccc(F)c3)nn12`: in [8], the CC50 was 35.1 µM (active). In addition, in the assay “cells”, the concentration for half-maximal inhibition (IC50) was 41.8 µM (active). Moreover, the AC50 in assay [11] is 6.74 µM (active).

For the compound `Clc1ccc(/C=N/Nc2nnn[nH]2)cc1`, the IC50 at Aminopeptidase N is 92.8 µM (active).

With `CCOc1nn(-c2ccccc2)c(O)c1/C=N/c1ccc(OC)cc1`, the half-inhibitory concentration (IC50) in assay [12] was > 100 µM (active).

With `CCOC(=O)c1ccc(NC(=O)N2CCN(Cc3ccccc3)CC2)cc1`, in assay [12], the IC50 was > 100 µM (active).

With `CC(C(=O)N=Nc1c(O)[nH]c2ccccc12)n1cnc2ccccc2c1=O` (stereo not drawn), the half-maximal inhibitory concentration (IC50) in “cells” was > 50 µM (active).

As for `COc1nc(N=C(N)N)nc2c(C)cccc12`, the IC50 on Aminopeptidase N is 22.2 µM (active).

As for `CCN(Cc1nc(O)c2ccccc2n1)C(=O)c1cc(C2CC2)nn1-c1ccccc1`, in “cells”, the IC50 was 8.79 µM (active).

In the case of `CCCc1nc2sc3ccccc3c(=O)c2c(=O)n1Cc1ccc(OC)cc1`, the 50% inhibitory concentration (IC50) in [12] is > 100 µM (active).

For the compound `Nc1nc(COc2ccc(Cl)cc2)cs1`, the IC50 in [12] was > 100 µM (active).
